“Also recorded” adds a separate entry of the source.
B1: NOGGIN: physiological BMP antagonist (protein, UniProt Q13253 28-232, looked up)
Noggin: QHYLHIRPAPSDNLPLVDLIEHPDPIFDPKEKDLNETLLRSLLGGHYDPGFMATSPPEDRPGGGGGAAGGAEDLAELDQLLRQRPSGAMPSEIKGLEFSEGLAQGKKQRLSKKLRRKLQMWLWSQTFCPVLYAWNDLGSRFWPRYVKVGSCFSKRSCSVPEGMVCKPSKSVHLTVLRWRCQRRGGQRCGWIPIQYPIISECKCSC

What was measured:
KhES3 and H1 cells [1] = test: Intermediate step intervention in C3H10T1/2 co-culture: occurrence of CD43+ blood cells on day 10; format: cell-based, human; details: factor added in intermediate step days 4 to 7, in the presence of VEGF; compared with control/DMSO group; n=3
Method: (§1) Human ES cells that had been maintenance cultured in MEF were detached from the bottom of the dish in colony form as at the time of passage, and seeded on an inactivated C3H10T1/2 dish that had been prepared the previous day. The seeding rate was roughly 5×10^4 to 2×10^5 cells per 10-cm dish, although this is an estimate because the cells could not be counted. The medium was blood cell differentiation medium to which VEGF had been added to a final concentration of 20 ng/mL. Single cells were collected using 0.05% trypsin EDTA as necessary, the cells were counted, Y27632 was added to […], and the cells were differentiated as single cells.
When analyzing cells during differentiation, the culture supernatant was removed, the cells were washed twice with PBS, and 2 mL/dish of 0.25% trypsin EDTA was added and incubated for 5 minutes at 37° C. […] Blood cell differentiation medium was added to stop the reaction, and after centrifugation and removal of the supernatant, the cells were suspended in the necessary medium and analyzed.
(§2) Cells in a single-cell state were prepared as necessary, and fluorescent labeled antibodies were also included as necessary in amounts matching the cell numbers. […] These were then diluted with SM and centrifuged, the supernatant was removed, and the cells were suspended in the necessary amount of SMPI and analyzed. […]

KhES3 and H1 cells [2] = test: Initial step intervention in C3H10T1/2 co-culture: occurrence of CD56+APJ+ mesodermal cells on day 4 (flow cytometry); format: cell-based, human; details: factor added on days 0 to 4; co-culture with C3H10T1/2; compared with control group; n=3
Method: as §1
When analyzing cells during differentiation, the culture supernatant was removed, the cells were washed twice with PBS, and 2 mL/dish of 0.25% trypsin EDTA was added and incubated for 5 minutes at 37° C. The cells were separated into single cells by pipetting with a Pipetman (p1000), and collected in a 15 mL centrifuge tube. Blood cell differentiation medium was added to stop the reaction, and after centrifugation and removal of the supernatant, the cells were suspended in the necessary medium and analyzed.
as §2
Taking cell surface markers as an evaluation standard, KhES3 and H1 cells were used to investigate what changes are seen in the occurrence of CD56+APJ+ cells due to interventions in the initial step. […] For the added concentrations of each factor, the maximum concentration was determined with reference to previous reports, and this was then diluted to investigate concentration (Inman, G. J. et al., Mol. Pharmacol. 62, 65-74 (2002); Xu, R.-H. et al., Nat Meth 2, 185-190 (2005); Huang, S.-M. A. et al., Nature 461, 614-620 (2009)).

| Molecule | percentage occurrence of blood cells (CD43+) on day 10 (KhES3 and H1 cells [1]) | occurrence of CD56+APJ+ mesodermal cells on day 4 (KhES3 and H1 cells [2]) |
| --- | --- | --- |
| NC(=O)c1ccc(-c2nc(-c3ccc4c(c3)OCO4)c(-c3ccccn3)[nH]2)cc1 [SB431542] | increased; also recorded: significantly improved | sharp drop in the ratio of CD56+APJ+ cells at the low concentration point; also recorded: significant decrease in the mesodermal cell population |
| bFGF: basic fibroblast growth factor | tended to be better |  |
| Oc1nc(-c2ccc(C(F)(F)F)cc2)nc2c1CSCC2 [XAV939] |  | reduction in CD56+APJ+ cells was confirmed; also recorded: tended to decrease |
| B1 |  | drop in CD56+APJ+ cells was confirmed, but the effect was limited; also recorded: decrease in the mesodermal cell population |

— patent publication US11136547B2, “Mesoderm induction method having high blood cell differentiation capacity” (Kyoto University, priority 2016, dated 2021)
